Results published in US20240246932A1 (Merck Sharp & Dohme LLC, priority 2021, published 2024).

Biological target: human NaV 1.8 channels stably expressed in HEK 293 cells (Homo sapiens (Human), UniProt Q9Y5Y9)
Assay: Nav1.8 Qube automated patch-clamp assay
Format: cell-based
Details: human NaV1.8 in HEK 293 cells, whole-cell voltage clamp, room temperature; read-out: IC50 values (nM) for Examples in the Nav1.8 Qube Assay
Summary of the method: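 Whole-cell voltage clamp at room temperature on HEK293 cells; from −90 mV, a 10 s 1 Hz train of 20 ms pulses to 10 mV (repolarising to −67 mV) was applied. Peak currents at pulses 1 and 10 gave resting- and inactivated-state inhibition; IC50 fitted by Hill equation. Internal CsF/CsCl buffer.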

human NaV 1.8 channels stably expressed in HEK 293 cells, sequence (Q9Y5Y9 whole entry): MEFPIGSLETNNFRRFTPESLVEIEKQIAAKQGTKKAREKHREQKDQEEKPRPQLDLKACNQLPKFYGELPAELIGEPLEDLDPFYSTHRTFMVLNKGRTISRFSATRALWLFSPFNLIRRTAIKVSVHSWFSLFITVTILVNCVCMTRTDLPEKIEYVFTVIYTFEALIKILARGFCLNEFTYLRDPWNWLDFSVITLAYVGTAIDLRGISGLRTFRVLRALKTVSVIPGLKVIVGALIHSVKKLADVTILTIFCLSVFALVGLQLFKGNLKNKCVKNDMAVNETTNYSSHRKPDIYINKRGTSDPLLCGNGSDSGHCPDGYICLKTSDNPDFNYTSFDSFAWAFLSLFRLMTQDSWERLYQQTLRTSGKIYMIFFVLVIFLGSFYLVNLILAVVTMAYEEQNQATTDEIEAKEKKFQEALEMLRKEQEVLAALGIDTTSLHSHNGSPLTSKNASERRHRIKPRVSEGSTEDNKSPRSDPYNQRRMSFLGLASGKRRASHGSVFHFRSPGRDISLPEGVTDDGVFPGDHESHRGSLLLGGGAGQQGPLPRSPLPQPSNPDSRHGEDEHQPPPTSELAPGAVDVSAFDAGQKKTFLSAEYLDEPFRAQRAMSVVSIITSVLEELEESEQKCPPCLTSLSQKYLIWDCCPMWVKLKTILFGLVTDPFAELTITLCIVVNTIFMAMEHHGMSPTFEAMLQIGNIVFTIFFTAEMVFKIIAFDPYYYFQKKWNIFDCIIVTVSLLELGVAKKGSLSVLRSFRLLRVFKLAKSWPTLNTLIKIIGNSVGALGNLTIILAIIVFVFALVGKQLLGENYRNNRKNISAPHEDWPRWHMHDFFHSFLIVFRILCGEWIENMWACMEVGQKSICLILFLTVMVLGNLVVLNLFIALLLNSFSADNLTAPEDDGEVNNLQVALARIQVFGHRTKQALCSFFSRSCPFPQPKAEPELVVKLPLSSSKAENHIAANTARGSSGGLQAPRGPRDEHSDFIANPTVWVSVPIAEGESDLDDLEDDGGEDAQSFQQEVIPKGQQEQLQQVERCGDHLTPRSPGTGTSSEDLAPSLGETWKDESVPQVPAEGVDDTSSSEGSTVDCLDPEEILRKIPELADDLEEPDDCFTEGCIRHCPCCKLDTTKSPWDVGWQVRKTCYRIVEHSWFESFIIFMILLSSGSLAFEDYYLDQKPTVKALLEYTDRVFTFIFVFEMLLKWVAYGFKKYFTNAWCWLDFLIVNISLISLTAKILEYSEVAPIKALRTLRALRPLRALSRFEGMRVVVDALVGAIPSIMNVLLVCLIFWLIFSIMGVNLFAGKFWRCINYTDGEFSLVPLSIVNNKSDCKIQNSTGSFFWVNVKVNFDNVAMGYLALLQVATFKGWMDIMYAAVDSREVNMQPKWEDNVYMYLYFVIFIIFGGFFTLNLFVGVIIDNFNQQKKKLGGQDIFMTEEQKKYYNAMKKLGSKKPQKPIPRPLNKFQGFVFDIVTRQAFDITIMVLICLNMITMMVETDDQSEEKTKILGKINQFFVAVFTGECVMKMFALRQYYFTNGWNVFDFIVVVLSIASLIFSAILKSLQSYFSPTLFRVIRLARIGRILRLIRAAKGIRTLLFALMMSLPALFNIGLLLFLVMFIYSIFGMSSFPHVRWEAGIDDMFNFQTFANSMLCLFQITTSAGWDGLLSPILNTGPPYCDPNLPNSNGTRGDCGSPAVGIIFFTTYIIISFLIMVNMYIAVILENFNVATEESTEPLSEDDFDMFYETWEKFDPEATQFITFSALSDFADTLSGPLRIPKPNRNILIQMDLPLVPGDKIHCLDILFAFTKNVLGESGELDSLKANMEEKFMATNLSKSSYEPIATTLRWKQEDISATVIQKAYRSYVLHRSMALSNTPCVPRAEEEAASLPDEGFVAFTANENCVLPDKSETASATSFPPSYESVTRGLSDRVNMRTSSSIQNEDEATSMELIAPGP

| Compound | IC50 |
| --- | --- |
| C[C@@H]1C(=O)NCCN1C(=O)NC(c1cnc(C(F)(F)F)nc1)c1ccc(F)c(Cl)c1 (single isomer, unassigned) [Example 69A, (2R)-N-((R or S)-(3-chloro-4-fluorophenyl)(2-(trifluoromethyl)pyrimidin-5-yl)methyl)-2-methyl-3-oxopiperazine-1-carboxamide] | 136 nM |
| O=C1NCCN(C(=O)NC(c2ccc(C(F)(F)F)nc2)c2ccc(F)c(Cl)c2F)C1C1CC1 (single isomer, unassigned) [Example 38B, N—((R or S)-(3-chloro-2,4-difluorophenyl)(6-(trifluoromethyl)pyridin-3-yl)methyl)-(S)-2-cyclopropyl-3-oxopiperazine-1-carboxamide] | 2.22 nM |
| C[C@@H]1C(=O)NCCN1C(=O)NC(c1ccc(Cl)c(C(F)(F)F)n1)c1ccc(F)c(Cl)c1F (single isomer, unassigned) [Example 77A, (2R)-N-((R or S)-(3-chloro-2,4-difluorophenyl)(5-chloro-6-(trifluoromethyl)pyridin-2-yl)methyl)-2-methyl-3-oxopiperazine-1-carboxamide] | 4.59 nM |
| C[C@@H]1C(=O)NCCN1C(=O)NC(c1ccc(OC(F)(F)F)nc1)c1ccc(F)c(C(F)(F)F)n1 (single isomer, unassigned) [Example 51B, (2R)-N-((S or R)-(5-fluoro-6-(trifluoro-methyl)pyridin-2-yl)(6-(trifluoromethoxy)pyridin-3-yl)methyl)-2-methyl-3-oxopiperazine-1-carboxamide] | 13.2 nM |
| C[C@@H]1C(=O)NCCN1C(=O)NC(c1ccc(OC(F)(F)F)nc1)c1ccc(F)c(C(F)(F)F)n1 (single isomer, unassigned) [Example 51A, (2R)-N-((R or S)-(5-fluoro-6-(trifluoromethyl)pyridin-2-yl)(6-(trifluoro-methoxy)pyridin-3-yl)methyl)-2-methyl-3-oxopiperazine-1-carboxamide] | 129 nM |
| O=C1NCCN(C(=O)NC(c2ccc(C(F)(F)F)nc2)c2ccc(F)c(Cl)c2F)C1C1CC1 (single isomer, unassigned) [Example 38A, N—((R or S)-(3-chloro-2,4-difluorophenyl)(6-(trifluoromethyl)pyridin-3-yl)methyl)-(R)-2-cyclopropyl-3-oxopiperazine-1-carboxamide] | 559 nM |
| C[C@@H]1C(=O)NCCN1C(=O)NC(c1ccc(C#N)cc1)c1ccc(Cl)c(C(F)(F)F)n1 (single isomer, unassigned) [Example 76A] | 5.18 nM |
| C[C@@H]1C(=O)NCCN1C(=O)NC(c1cnc(OCC(F)(F)F)s1)c1ccc(F)c(Cl)c1F (single isomer, unassigned) [Example 13B, (2R)-N-((S or R)-(3-chloro-2,4-difluoro-phenyl)(2-(2,2,2-trifluoroethoxy)thiazol-5-yl)methyl)-2-methyl-3-oxopiperazine-1-carboxamide] | 9.42 nM |
| C[C@@H]1C(=O)NCCN1C(=O)NC(c1cnn(-c2ccc(F)cc2)c1)c1ccc(F)c(Cl)c1F (single isomer, unassigned) [Example 65B, (2R)-N-((S or R)-(3-chloro-2,4-difluoro-phenyl)(1-(4-fluoro-phenyl)-1H-pyrazol-4-yl)methyl)-2-methyl-3-oxopiperazine-1-carboxamide] | 89.3 nM |
| C[C@@H]1C(=O)NCCN1C(=O)NC(c1cnc(C(F)(F)F)c(Cl)c1)c1ccc(Cl)c(C(F)(F)F)n1 (single isomer, unassigned) [Example 83A] | 6.51 nM |
| C[C@@H]1C(=O)NCCN1C(=O)NC(c1cnc(C(F)(F)F)c(Cl)c1)c1csc(C(F)(F)F)n1 (single isomer, unassigned) [Example 84A, (2R)-N-((R or S)-(5-chloro-6-(trifluoromethyl)pyridin-3-yl)(2-(trifluoromethyl)thiazol-4-yl)methyl)-2-methyl-3-oxopiperazine-1-carboxamide] | 16.2 nM |
| C[C@@H]1C(=O)NCCN1C(=O)NC(c1ccc(C(F)(F)F)nc1)c1ccc(F)c(Cl)c1 (single isomer, unassigned) [Example 16A, (2R)-N-((R or S)-(3-chloro-4-fluorophenyl)(6-(trifluoromethyl)pyridin-3-yl)methyl)-2-methyl-3-oxopiperazine-1-carboxamide] | 13.5 nM |
| C[C@@H]1C(=O)NCCN1C(=O)NC(c1ccc(OC(F)(F)F)c(F)c1)c1ccc(F)c(C(F)(F)F)n1 (single isomer, unassigned) [Example 56A, (2R)-N-((R or S)-(3-fluoro-4-(trifluoro-methoxy)phenyl)(5-fluoro-6-(trifluoro-methyl)pyridin-2-yl)methyl)-2-methyl-3-oxopiperazine-1-carboxamide] | 11.7 nM |
| C[C@@H]1C(=O)NCCN1C(=O)NC(c1cnc(C(F)(F)F)c(Cl)c1)c1ccc(Cl)c(C#N)c1 (single isomer, unassigned) [Example 23A, (2R)-N-((R or S)-(4-chloro-3-cyano-phenyl)(5-chloro-6-(trifluoromethyl)pyridin-3-yl)methyl)-2-methyl-3-oxopiperazine-1-carboxamide] | 17 nM |
| C[C@@H]1C(=O)NCCN1C(=O)NC(c1ccc(Cl)cc1)c1ccc(OCC(F)(F)F)nc1 (single isomer, unassigned) [Example 5B, (2R)-N-((S or R)-(4-chlorophenyl)(6-(2,2,2-trifluoro-ethoxy)pyridin-3-yl)methyl)-2-methyl-3-oxopiperazine-1-carboxamide] | 28.9 nM |
| O=C1NCCN(C(=O)NC(c2cnc(C(F)(F)F)nc2)c2ccc(F)c(Cl)c2F)C1C1CC1 (single isomer, unassigned) [Example 41A, N-((R or S)-(3-chloro-2,4-difluorophenyl)(2-(trifluoromethyl)pyrimidin-5-yl)methyl)-(R or S)-2-cyclopropyl-3-oxopiperazine-1-carboxamide] | 2020 nM |
| O=C1CN(C(=O)NC(c2ccc(F)c(Cl)c2)c2ccc(Cl)c(C(F)(F)F)n2)CCN1 (single isomer, unassigned) [Example 80, N-((R or S)-(3-chloro-4-fluorophenyl)(5-chloro-6-(trifluoromethyl)pyridin-2-yl)methyl)-3-oxopiperazine-1-carboxamide] | 1.9 nM |
| C[C@@H]1C(=O)NCCN1C(=O)NC(c1ccc(OCC(F)(F)F)nc1)c1cc(F)c(F)c(Cl)c1 (single isomer, unassigned) [Example 7A, (2R)-N-((R or S)-(3-chloro-4,5-difluorophenyl)(6-(2,2,2-trifluoro-ethoxy)pyridin-3-yl)methyl)-2-methyl-3-oxopiperazine-1-carboxamide] | 10.8 nM |
| O=C1NCCN(C(=O)NC(c2cnc(C(F)(F)F)nc2)c2ccc(F)c(Cl)c2F)C1C1CC1 (single isomer, unassigned) [Example 41B, N-((R or S)-(3-chloro-2,4-difluorophenyl)(2-(trifluoromethyl)pyrimidin-5-yl)methyl)-(S or R)-2-cyclopropyl-3-oxopiperazine-1-carboxamide] | 4.94 nM |
| C[C@@H]1C(=O)NCCN1C(=O)NC(c1cnc(C(F)(F)F)s1)c1ccc(F)c(Cl)c1F (single isomer, unassigned) [Example 62A] | 197 nM |
| C[C@@H]1C(=O)NCCN1C(=O)NC(c1cnc(C(F)(F)F)c(Cl)c1)c1ccc(F)c(Cl)c1F (single isomer, unassigned) [Example 35, (2R)-N-((R or S)-(3-chloro-2,4-difluorophenyl)(5-chloro-6-(trifluoromethyl)pyridin-3-yl)methyl)-2-methyl-3-oxopiperazine-1-carboxamide] | 1.13 nM |
| C[C@@H]1C(=O)NCCN1C(=O)NC(c1ccc(C(C)(F)F)nc1)c1ccc(F)c(Cl)c1F (single isomer, unassigned) [Example 75A] | 89.5 nM |
| C[C@@H]1C(=O)NCCN1C(=O)NC(c1ccc(OCC(F)(F)F)nc1)c1ccc(F)c(F)c1 (single isomer, unassigned) [Example 6B, (2R)-N-((S or R)-(3,4-difluorophenyl)(6-(2,2,2-trifluoro-ethoxy)pyridin-3-yl)methyl)-2-methyl-3-oxopiperazine-1-carboxamide] | 128 nM |
| C[C@@H]1C(=O)NCCN1C(=O)NC(c1ccc(Cl)c(C#N)c1)c1ccc(F)c(C(F)(F)F)n1 (single isomer, unassigned) [Example 52B, (2R)-N-((S or R)-(4-chloro-3-cyano-phenyl)(5-fluoro-6-(trifluoromethyl)pyridin-2-yl)methyl)-2-methyl-3-oxopiperazine-1-carboxamide] | 64.5 nM |
| C[C@@H]1C(=O)NCCN1C(=O)NC(c1ccc(F)c(Cl)c1)c1cc(C(F)(F)F)n[nH]1 (single isomer, unassigned) [Example 85B] | 5.47 nM |
| C[C@@H]1C(=O)NCCN1C(=O)NC(c1cccc(OC(F)(F)F)c1)c1ccc(F)c(C(F)(F)F)n1 (single isomer, unassigned) [Example 58A, (2R)-N-((R or S)-(5-fluoro-6-(trifluoro-methyl)pyridin-2-yl)(3-(trifluoromethoxy)phenyl)methyl)-2-methyl-3-oxopiperazine-1-carboxamide] | 3.6 nM |
| C[C@@H]1C(=O)NCCN1C(=O)NC(c1ccc(OC(F)F)nc1)c1ccc(F)c(Cl)c1 (single isomer, unassigned) [Example 73A, (2R)-N-((R or S)-(3-chloro-4-fluorophenyl)(6-(difluoromethoxy)pyridin-3-yl)methyl)-2-methyl-3-oxopiperazine-1-carboxamide] | 7.01 nM |
| C[C@@H]1C(=O)NCCN1C(=O)NC(c1ccc(Cl)cc1)c1ccc(C(F)(F)F)nc1 (single isomer, unassigned) [Example 17A, (2R)-N-((R or S)-(4-chlorophenyl)(6-(trifluoromethyl)pyridin-3-yl)methyl)-2-methyl-3-oxopiperazine-1-carboxamide] | 101 nM |
